Results published in ChEMBL document CHEMBL4825722, “Discovery of Potent Selective Nonzinc Binding Autotaxin Inhibitor BIO-32546” (ACS Med Chem Lett, 2021).

What was measured:
[1] = Protein binding in rat plasma assessed as unbound fraction; assay type: ADME, cell-free
[2] = Protein binding in human plasma assessed as unbound fraction at 2 uM by rapid equilibrium dialysis method; assay type: ADME, cell-free
[3] = Total brain to plasma concentration ratio in rat at 10 mg/kg, po measured after 4 hrs; assay type: ADME, organism-based; settings: brain and plasma, read-out: BPR
[4] = Clearance in rat at 10 mg/kg, po; assay type: ADME, organism-based; settings: in vivo
[5] = Drug concentration in rat brain at 10 mg/kg, po after 4 hrs; assay type: ADME, organism-based; settings: read-out: Ct
[6] = target: Autotaxin (Homo sapiens, UniProt Q13822); test: Inhibition of human ATX assessed as reduction in LPA formation using FS-3 as substrate preincubated for 30 mins followed by substrate addition and measured after 2 hrs by FRET assay
[7] = target: T1, hERG (KCNH2) (Homo sapiens, UniProt Q12809); test: Inhibition of human ERG at 1 uM by automated patch-clamp assay relative to control
[8] = target: T1, hERG (KCNH2); test: Inhibition of human ERG at 10 uM by automated patch-clamp assay relative to control

T1 sequence (Q12809 whole entry): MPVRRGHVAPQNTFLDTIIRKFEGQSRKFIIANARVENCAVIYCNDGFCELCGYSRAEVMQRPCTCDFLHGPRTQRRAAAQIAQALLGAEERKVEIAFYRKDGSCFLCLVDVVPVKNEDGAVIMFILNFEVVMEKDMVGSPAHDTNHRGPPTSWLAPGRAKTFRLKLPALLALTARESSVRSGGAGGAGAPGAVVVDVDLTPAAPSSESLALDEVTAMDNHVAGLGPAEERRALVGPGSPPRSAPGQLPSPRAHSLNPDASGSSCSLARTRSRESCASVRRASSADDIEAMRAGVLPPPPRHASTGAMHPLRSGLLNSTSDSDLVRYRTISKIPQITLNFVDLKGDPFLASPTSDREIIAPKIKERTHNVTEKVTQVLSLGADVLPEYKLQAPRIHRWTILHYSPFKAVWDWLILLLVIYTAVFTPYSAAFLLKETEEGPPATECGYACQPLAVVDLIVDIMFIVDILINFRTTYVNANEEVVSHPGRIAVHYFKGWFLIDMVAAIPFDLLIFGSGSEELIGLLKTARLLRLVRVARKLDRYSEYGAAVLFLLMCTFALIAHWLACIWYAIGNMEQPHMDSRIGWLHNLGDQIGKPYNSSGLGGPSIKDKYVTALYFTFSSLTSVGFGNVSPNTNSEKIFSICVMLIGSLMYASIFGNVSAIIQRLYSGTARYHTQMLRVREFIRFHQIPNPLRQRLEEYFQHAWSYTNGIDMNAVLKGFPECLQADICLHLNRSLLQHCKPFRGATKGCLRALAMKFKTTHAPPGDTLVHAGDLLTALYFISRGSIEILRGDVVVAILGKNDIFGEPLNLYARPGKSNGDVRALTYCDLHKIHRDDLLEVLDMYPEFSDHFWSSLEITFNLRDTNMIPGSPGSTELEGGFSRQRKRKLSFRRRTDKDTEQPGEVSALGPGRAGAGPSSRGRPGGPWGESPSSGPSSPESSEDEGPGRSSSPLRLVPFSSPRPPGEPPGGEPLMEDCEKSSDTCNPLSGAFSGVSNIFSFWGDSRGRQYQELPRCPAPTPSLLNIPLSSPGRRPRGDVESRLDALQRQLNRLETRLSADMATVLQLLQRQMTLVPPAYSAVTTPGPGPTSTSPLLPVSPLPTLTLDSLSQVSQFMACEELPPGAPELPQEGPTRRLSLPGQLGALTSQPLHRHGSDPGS

**Q.** For `C[C@@H](c1ccc2ccc(O[C@H]3CC[C@@H](C)CC3)c(C(F)(F)F)c2c1)N1C2CCC1CC(C(=O)O)C2` (some centres not stated), which Fu [1] is on record?
**A.** The Fu was 0.22%.

**Q.** What about the Fu [2] of the same compound?
**A.** Its Fu is 0.18%.

**Q.** What about the Kp at 4 h [3] of the same compound?
**A.** The Kp at 4 h was 0.8.

**Q.** And the CL/F [4]?
**A.** Its CL/F is 94 mL/min/kg.

**Q.** And the concentration at 4 h [5]?
**A.** The concentration at 4 h was 103 ng/mL.

**Q.** For `C[C@@H](c1ccc2ccc(O[C@H]3CC[C@@H](C)CC3)c(C(F)(F)F)c2c1)N1C2CCCC1CC(C(=O)O)C2` (some centres not stated), which IC50 [6] is on record?
**A.** The IC50 was 3.6 nM.

**Q.** What about the inhibition at 1 µM [7] of the same compound?
**A.** The inhibition at 1 µM was 4.6%.

**Q.** And the inhibition at 10 µM [8]?
**A.** The inhibition at 10 µM was 24.4%.

**Q.** Which results are given for `O=C(O)C1CCN(Cc2ccc3c(C(F)(F)F)c(O[C@H]4CC[C@@H](C(F)(F)F)CC4)ccc3c2)CC1`?
**A.** IC50 [6]: 370 nM; inhibition at 1 µM [7]: 6.6%; inhibition at 10 µM [8]: 86.8%

**Q.** With `C[C@H]1CC[C@@H](Oc2ccc3ccc(CN4C5CCC4CC(C(=O)O)C5)cc3c2C(F)(F)F)CC1` (some centres not stated) as the compound, how does the IC50 [6] read?
**A.** The IC50 was 100 nM.

**Q.** What about the inhibition at 1 µM [7] of the same compound?
**A.** The inhibition at 1 µM was 6%.

**Q.** What about the inhibition at 10 µM [8] of the same compound?
**A.** Its inhibition at 10 µM is 65%.

**Q.** With `O=C(NCCCP(=O)(O)O)c1ccc2c(C(F)(F)F)c(O[C@H]3CC[C@@H](C(F)(F)F)CC3)ccc2c1` as the compound, how does the IC50 [6] read?
**A.** Its IC50 is 28 nM.

**Q.** With `O=C(O)CCCNCc1ccc2c(C(F)(F)F)c(O[C@H]3CC[C@@H](C(F)(F)F)CC3)ccc2c1` as the compound, how does the IC50 [6] read?
**A.** Its IC50 is 1300 nM.

**Q.** Which results are given for `C[C@H](c1ccc2ccc(O[C@H]3CC[C@@H](C)CC3)c(C(F)(F)F)c2c1)N1C2CCCC1CC(C(=O)O)C2` (some centres not stated)?
**A.** IC50 [6]: 330 nM; inhibition at 1 µM [7]: 8.4%; inhibition at 10 µM [8]: 29.6%

**Q.** With `C[C@H]1CC[C@@H](Oc2ccc3cc(CN4C5CCCC4CC(C(=O)O)C5)ccc3c2C(F)(F)F)CC1` (some centres not stated) as the compound, how does the IC50 [6] read?
**A.** The IC50 was 38 nM.

**Q.** What about the inhibition at 1 µM [7] of the same compound?
**A.** The inhibition at 1 µM was 1.6%.

**Q.** And the inhibition at 10 µM [8]?
**A.** Its inhibition at 10 µM is 52.7%.

**Q.** Which IC50 [6] does the source give for `C[C@H]1CC[C@@H](Oc2ccc3ccc(CN4C5CCCC4CC(C(=O)O)C5)cc3c2C(F)(F)F)CC1` (some centres not stated) here?
**A.** Its IC50 is 8.2 nM.

**Q.** What about the inhibition at 1 µM [7] of the same compound?
**A.** Its inhibition at 1 µM is 12%.

**Q.** And the inhibition at 10 µM [8]?
**A.** The inhibition at 10 µM was 84%.

**Q.** For `CCCCCCCCCCCCCC(=O)OC[C@@H](O)COP(=O)(O)O`, which IC50 [6] is on record?
**A.** Its IC50 is 110 nM.

**Q.** For `O=C(O)CCCNC(=O)c1ccc2c(C(F)(F)F)c(O[C@H]3CC[C@@H](C(F)(F)F)CC3)ccc2c1`, which IC50 [6] is on record?
**A.** The IC50 was 3700 nM.
